Laboratory results taken from PubChem BioAssay AID330 (DTP/NCI, 2004).
Values joined by “and” are separate entries in the source; they are usually repeats but may differ in a detail not shown here. Equal values may be shown once. Inconclusive results and toxic doses are left out. How the source made its calls: active means survival T/C of 150% or more; inactive means T/C below 125% in these data. Peptide text beside a SMILES is read from it.

Test system: P388 leukemia ip, CD2F1 mice, survival T/C
Test: NCI In Vivo Anticancer Drug Screen. Data for tumor model P388 Leukemia (intraperitoneal) in CD2F1 (CDF1) mice
Conditions: endpoint: median survival time, higher = longer survival
Method in brief: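 Mice carrying the transplanted tumor received test compound or vehicle. Survival was recorded in each group, and the value is the treated-group measurement divided by that of the vehicle-treated control group.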

[1] = dose: 50.0 mg/kg/injection, schedule: Q01DX009 (ip), vehicle: saline with Tween-80
[2] = dose: 100.0 mg/kg/injection, schedule: Q01DX009 (ip), vehicle: saline with Tween-80
[3] = dose: 200.0 mg/kg/injection, schedule: Q01DX009 (ip), vehicle: saline with Tween-80
[4] = dose: 12.5 mg/kg/injection, schedule: Q01DX009 (ip), vehicle: saline with Tween-80
[5] = dose: 25.0 mg/kg/injection, schedule: Q01DX009 (ip), vehicle: saline with Tween-80
[6] = dose: 50.0 mg/kg/injection, schedule: Q01DX005 (ip), vehicle: saline
[7] = dose: 50.0 mg/kg/injection, schedule: Q01DX009 (ip), vehicle: saline
[8] = dose: 100.0 mg/kg/injection, schedule: Q01DX009 (ip), vehicle: saline
[9] = dose: 200.0 mg/kg/injection, schedule: Q01DX009 (ip), vehicle: saline
[10] = dose: 12.5 mg/kg/injection, schedule: Q01DX009 (ip), vehicle: saline
[11] = dose: 25.0 mg/kg/injection, schedule: Q01DX009 (ip), vehicle: saline
[12] = dose: 100.0 mg/kg/injection, schedule: Q04DX002 (ip), vehicle: saline with Tween-80
[13] = dose: 200.0 mg/kg/injection, schedule: Q04DX002 (ip), vehicle: saline with Tween-80
[14] = dose: 400.0 mg/kg/injection, schedule: Q04DX002 (ip), vehicle: saline with Tween-80

Measured: T/C

Cc1nc2cncnc2n(CCN2CCOCC2)c1=O
inactive: dose: 60.0 mg/kg/injection, schedule: Q01DX005 (ip), vehicle: Klucel (hydroxypropylcellulose) (HPC) 98 % of control | dose: 120.0 mg/kg/injection, schedule: Q01DX005 (ip), vehicle: Klucel (hydroxypropylcellulose) (HPC) 95 % of control | dose: 240.0 mg/kg/injection, schedule: Q01DX005 (ip), vehicle: Klucel (hydroxypropylcellulose) (HPC) 96 % of control

CCOC(=O)c1c(C(=O)Nc2ccccc2)c(-c2ccccc2)n(NC(N)=O)c1C
inactive: dose: 50.0 mg/kg/injection, schedule: Q01DX005 (ip), vehicle: saline with Tween-80 104 % of control | dose: 100.0 mg/kg/injection, schedule: Q01DX005 (ip), vehicle: saline with Tween-80 105 % of control | dose: 200.0 mg/kg/injection, schedule: Q01DX005 (ip), vehicle: saline with Tween-80 98 % of control

COc1ccc(/C(O)=C/c2nc3ccc([N+](=O)[O-])cc3[nH]c2=O)cc1
inactive: dose: 60.0 mg/kg/injection, schedule: Q01DX005 (ip), vehicle: Klucel + Tween-80 97 % of control | dose: 120.0 mg/kg/injection, schedule: Q01DX005 (ip), vehicle: Klucel + Tween-80 94 % of control | dose: 240.0 mg/kg/injection, schedule: Q01DX005 (ip), vehicle: Klucel + Tween-80 95 % of control

O=C1C2CCC(CC2)C1C(c1ccccc1)c1ccccc1 (centres undefined)
inactive: [1] 93 % of control | [2] 91 % of control | [3] 90 % of control

COc1cc(C)c2c(=O)c3c(oc2c1)C(=O)c1c(O)c(OC)cc(O)c1C3=O
inactive: [4] 115 % of control | [5] 108 % of control | [1] 114 % of control | [2] 115 % of control | [3] 103 % of control

OC[C@@H]1CCCN2CCCC[C@H]12
inactive: dose: 6.2 mg/kg/injection, schedule: Q01DX007 (ip), vehicle: carboxymethylcellulose (CMC) 91 % of control | dose: 12.5 mg/kg/injection, schedule: Q01DX007 (ip), vehicle: carboxymethylcellulose (CMC) 91 % of control | dose: 25.0 mg/kg/injection, schedule: Q01DX007 (ip), vehicle: carboxymethylcellulose (CMC) 91 % of control

CC(C)[C@@]12O[C@@H]1CC13OC1[C@@H](O)CC[C@@]32O (some centres undefined)
inactive: [6] 105 % of control | dose: 100.0 mg/kg/injection, schedule: Q01DX005 (ip), vehicle: saline 99 % of control | dose: 200.0 mg/kg/injection, schedule: Q01DX005 (ip), vehicle: saline 103 % of control

C/C(=N\NC(=O)c1ccccc1N)c1ccccc1O
inactive: dose: 50.0 mg/kg/injection, schedule: Q01DX005 (ip), vehicle: Klucel (hydroxypropylcellulose) (HPC) 100 % of control | dose: 100.0 mg/kg/injection, schedule: Q01DX005 (ip), vehicle: Klucel (hydroxypropylcellulose) (HPC) 98 % of control | dose: 200.0 mg/kg/injection, schedule: Q01DX005 (ip), vehicle: Klucel (hydroxypropylcellulose) (HPC) 100 % of control

COc1ccc(CSC(=S)Nc2ccc(SC)c(Cl)c2)cc1
inactive: dose: 50.0 mg/kg/injection, schedule: Q01DX009 (ip), vehicle: suspension in saline 100 % of control | dose: 100.0 mg/kg/injection, schedule: Q01DX009 (ip), vehicle: suspension in saline 108 % of control | dose: 200.0 mg/kg/injection, schedule: Q01DX009 (ip), vehicle: suspension in saline 98 % of control

COc1ccc(C(=S=O)N(C)c2ccccc2)cc1
inactive: [7] 100 % of control | [8] 100 % of control | [9] 90 % of control

CCN(CC)CCNc1ccc(COC(=O)NC)c2oc3ccccc3c(=O)c12
inactive: dose: 1.5 mg/kg/injection, schedule: Q01DX005 (ip), vehicle: distilled water + Tween-80 113 % of control | dose: 3.0 mg/kg/injection, schedule: Q01DX005 (ip), vehicle: distilled water + Tween-80 113 % of control | dose: 6.0 mg/kg/injection, schedule: Q01DX005 (ip), vehicle: distilled water + Tween-80 113 % of control | dose: 12.5 mg/kg/injection, schedule: Q01DX005 (ip), vehicle: distilled water + Tween-80 93 % of control

CN(C)CCC(=O)c1cccs1
inactive: [7] 107 % of control | [8] 105 % of control

OC1CC2CCCCC2CC1C1CCCCC1 (centres undefined)
inactive: dose: 100.0 mg/kg/injection, schedule: Q01DX001 (ip), vehicle: Klucel (hydroxypropylcellulose) (HPC) 90 % of control | dose: 200.0 mg/kg/injection, schedule: Q01DX001 (ip), vehicle: Klucel (hydroxypropylcellulose) (HPC) 91 % of control | dose: 400.0 mg/kg/injection, schedule: Q01DX001 (ip), vehicle: Klucel (hydroxypropylcellulose) (HPC) 94 % of control

COc1c(CO)c2c(c(OC)c1OC)-c1ccc(OC)c(=O)cc1[C@@H](NC(C)=O)CC2
active: dose: 25.0 mg/kg/injection, schedule: Q01DX009 (ip), vehicle: Klucel (hydroxypropylcellulose) (HPC) 160 % of control | dose: 50.0 mg/kg/injection, schedule: Q01DX009 (ip), vehicle: Klucel (hydroxypropylcellulose) (HPC) 185 % of control

COc1ccc(CCNCC(O)c2ccc(C)s2)cc1OC (centres undefined)
inactive: [10] 100 % of control | [11] 86 % of control | [7] 101 % of control and 86 % of control | [8] 98 % of control

O=c1n(CC2CC3(Cl)C(Cl)=C(Cl)C2(Cl)C3(Cl)Cl)c(=O)n(CC2CC3(Cl)C(Cl)=C(Cl)C2(Cl)C3(Cl)Cl)c(=O)n1CC1CC2(Cl)C(Cl)=C(Cl)C1(Cl)C2(Cl)Cl (centres undefined)
inactive: [4] 101 % of control | [5] 95 % of control | [1] 87 % of control and 95 % of control | [3] 97 % of control

NC(N)=NCCCC(N)C(=O)N1CCCC1C(=O)N1CCCC1C(=O)NC(CCCN=C(N)N)C(=O)O (centres undefined) (H-RPPR-OH; configuration not given here)
inactive: dose: 12.5 mg/kg/injection, schedule: Q01DX005 (ip), vehicle: saline 100 % of control | dose: 25.0 mg/kg/injection, schedule: Q01DX005 (ip), vehicle: saline 105 % of control | [6] 101 % of control

CCOc1cccc2c1C(=O)c1cccc(OCC)c1C2=O
inactive: dose: 100.0 mg/kg/injection, schedule: Q04DX003 (ip), vehicle: saline with Tween-80 109 % of control | dose: 200.0 mg/kg/injection, schedule: Q04DX003 (ip), vehicle: saline with Tween-80 104 % of control | dose: 400.0 mg/kg/injection, schedule: Q04DX003 (ip), vehicle: saline with Tween-80 100 % of control

CC(/C=N\Nc1ccc(Cl)cc1)=N/NC(N)=S
inactive: dose: 100.0 mg/kg/injection, schedule: Q04DX002 (ip), vehicle: saline 99 % of control | dose: 200.0 mg/kg/injection, schedule: Q04DX002 (ip), vehicle: saline 98 % of control

COC(=O)C1OC(SC(=N)N)C(OC(C)=O)C(OC(C)=O)C1OC(C)=O (centres undefined)
inactive: dose: 12.5 mg/kg/injection, schedule: Q01DX009 (ip), vehicle: water 101 % of control | dose: 25.0 mg/kg/injection, schedule: Q01DX009 (ip), vehicle: water 109 % of control | dose: 50.0 mg/kg/injection, schedule: Q01DX009 (ip), vehicle: water 107 % of control and 117 % of control

O=C(O)CCCCCOC(C[N+](=O)[O-])C(Cl)(Cl)Cl (centres undefined)
inactive: [1] 97 % of control | [2] 102 % of control | [3] 111 % of control

Fc1cccc(-c2nn[nH]n2)c1
inactive: [12] 102 % of control | [13] 107 % of control | [14] 116 % of control

O=P1(O)CC2=C(CC=CC2)C1
inactive: [1] 98 % of control | [2] 89 % of control | [3] 98 % of control

OC1C(O)C(O)C(O)C(O)C1O (centres undefined)
inactive: [7] 97 % of control | [8] 96 % of control | [9] 100 % of control | dose: 400.0 mg/kg/injection, schedule: Q01DX009 (ip), vehicle: saline 96 % of control

C=CCSC(C)=O
inactive: dose: 30.0 mg/kg/injection, schedule: Q01DX005 (ip), vehicle: saline with Tween-80 98 % of control | dose: 60.0 mg/kg/injection, schedule: Q01DX005 (ip), vehicle: saline with Tween-80 100 % of control | dose: 120.0 mg/kg/injection, schedule: Q01DX005 (ip), vehicle: saline with Tween-80 99 % of control

CCCCCC(CN(C)C)C(O)/C=C/c1ccc(Cl)cc1Cl (centres undefined)
inactive: [10] 108 % of control | [11] 100 % of control | [7] 99 % of control

COc1cc(C(C)(C)C)cc(OC)c1Br
inactive: [1] 101 % of control | [2] 88 % of control | [3] 90 % of control

c1ccc2c3c(ccc2c1)OCCOc1ccc2ccccc2c1-3
inactive: [12] 99 % of control | [13] 91 % of control | [14] 90 % of control

COc1cccc2c1C(=O)c1c(O)c3c(c(O)c1C2=O)C[C@@](O)(C(=O)COC(C)=O)C[C@@H]3OC1CC(N)C(O)C(C)O1 (some centres undefined)
active: dose: 0.08 mg/kg/injection, schedule: Q01DX009 (ip), vehicle: saline sonified 200 % of control | dose: 1.5 mg/kg/injection, schedule: Q01DX009 (ip), vehicle: saline sonified 150 % of control
